Assay results taken from patent US20140148336A1, “METHODS OF CONTROLLING FUNGAL PATHOGENS USING POLYENE FUNGICIDES” (priority 2012, published 2014).

What was measured:
soybean = experiment: Seed treatment in uninfested soil, germination and potential phytotoxicity (Example 5); assay type: in vivo; settings: for Root Vigor Average (Uninfested Soil): rating 0-4 (4 = healthy taproot)
From the text: (§1) The plants were allowed to grow for 18-21 days. The plants were then gently removed and assessed for root rot symptoms, with a rating of 1=0% infection on taproot and lateral roots, a 2=<25% infection, a 3=25-50% infection, a 4=51-90% infection, and a 5=>90% infection. Root vigor was rated such that a rating of 4=healthy taproot and many lateral roots, a 3=fewer lateral roots and some stunting, a 2=fewer or stringy lateral roots and more stunting, 1=thin tap root and only a few lateral roots, and a 0=thin and stunted taproot with 0-3 lateral roots.
Using a protocol similar to Example 2, natamycin treated seeds were tested at 50 μg, 25 μg, 10 μg, 5 μg, and 1 μg natamycin per seed. Briefly, seeds were coated with a natamycin slurry and then allowed to air dry. Ten samples of each were planted into infested soil, while five samples of each were planted in uninfested soil to compare germination and potential phytotoxicity.

SDS spores = experiment: Comparison of inoculum rates on treated seeds for control of SDS in planta (Example 6); assay type: in vivo, Fusarium virguliforme; settings: for Root Vigor Average: rating 0-4 (4 = healthy taproot); for Root Rot Average: rating 1-5 (5 = >90% infection)
From the text: as §1
Using a protocol similar to that described in Example 5, natamycin at concentrations of 50 μg, 25 μg, 10 μg, 5 μg, and 1 μg was assessed for the treatment of SDS.
[…] Inoculum rates of 25 g/L inoculum and 8 g/L inoculum were compared, corresponding to approximately 10^5 SDS spores per container and 10^4-10^5 SDS spores per container, respectively. Assessment occurred after 18 and 22 days.

[1] = system: SDS Fusarium virguliforme; experiment: Drench treatment on soy seedlings for control of SDS in planta, low concentrations (Example 4); assay type: in vivo; settings: for Root Vigor Average Expt. 1 / Root Vigor Average Expt. 2: rating 0 (thin and stunted taproot) to 4 (healthy taproot); for Root Vigor Average Expt. 1: IC 1.6, UIC 3.6; for Root Vigor Average Expt. 2: IC 2.2, UIC 3.9; for Root Rot Average Expt. 2 / Root Rot Average Expt. 1: rating 1 (0% infection) to 5 (>90% infection); for Root Rot Average Expt. 2: IC 3.8, UIC 1; for Root Rot Average Expt. 1: IC 4, UIC 1
From the text: The plants were allowed to grow for 18-21 days. The plants were then gently removed and assessed for root rot symptoms, with a rating of 1=0% infection on taproot and lateral roots, a 2=<25% infection, a 3=25-50% infection, a 4=51-90% infection, and a 5=>90% infection. Root vigor was rated such that a rating of 4=healthy taproot and many lateral roots, a 3=fewer lateral roots and some stunting, a 2=fewer or stringy lateral roots and more stunting, 1=thin tap root and only a few lateral roots, and a 0=thin and stunted taproot with 0-3 lateral roots. […] In these experiments, the inoculum rate was measured by spores/cone at approximately 1×10^7 SDS Fusarium virguliforme spores per cone. Soy plants were germinated first and then transplanted into infested soil. The soybean seeds were germinated in clean sand/soil for 12 days and then seedlings were transplanted into infested soil for 18 days. Natamycin drench was applied 24 hours after transplanting. Natamycin treatment was assessed at 2.5 weeks.

C[C@@H]1C/C=C/C=C/C=C/C=C/[C@H](O[C@@H]2O[C@H](C)[C@@H](O)[C@H](N)[C@@H]2O)C[C@@H]2O[C@](O)(C[C@@H](O)C[C@H]3O[C@@H]3/C=C/C(=O)O1)C[C@H](O)[C@H]2C(=O)O [Natamycin, natamycin]
germination of plants (soybean; all plants, seed treatment at all natamycin concentrations (50, 25, 10, 5, 1 μg per seed), un-infested (clean) soil): germinated
Root Vigor Average (Uninfested Soil) (soybean; seed treatment 1 μg/seed): 3.5
Root Vigor Average (Uninfested Soil) (soybean; seed treatment 5 μg/seed): 3.9
Root Vigor Average (Uninfested Soil) (soybean; seed treatment 10 μg/seed): 3.6
Root Vigor Average (Uninfested Soil) (soybean; seed treatment 25 μg/seed): 3.3
Root Vigor Average (Uninfested Soil) (soybean; seed treatment 50 μg/seed): 3.8
phytotoxicity to seeds (soybean; seed treatment at all concentrations (50, 25, 10, 5, 1 μg per seed), un-infested soil): not phytotoxic
decrease of root rot symptoms (SDS spores; both seed treatment experiments, both SDS inoculum rates): no consistent decrease
Root Vigor Average (SDS spores; drench 25 ppm, Inoc Rate 8, IC 2.3): 1.9
Root Rot Average (SDS spores; drench 25 ppm, Inoc Rate 8, IC 2.9): 2.6
Root Vigor Average (SDS spores; drench 25 ppm, Inoc Rate 25, IC 1.6): 2.3
Root Rot Average (SDS spores; drench 25 ppm, Inoc Rate 25, IC 3.9): 4.1
Root Vigor Average (SDS spores; seed treatment 1 μg/seed, Inoc Rate 8, IC 2.3): 1.9
Root Rot Average (SDS spores; seed treatment 1 μg/seed, Inoc Rate 8, IC 2.9): 2.9
Root Vigor Average (SDS spores; seed treatment 1 μg/seed, Inoc Rate 25, IC 1.6): 2.1
Root Rot Average (SDS spores; seed treatment 1 μg/seed, Inoc Rate 25, IC 3.9): 4.1
Root Vigor Average (SDS spores; seed treatment 5 μg/seed, Inoc Rate 8, IC 2.3): 1.4
Root Rot Average (SDS spores; seed treatment 5 μg/seed, Inoc Rate 8, IC 2.9): 2.4
Root Vigor Average (SDS spores; seed treatment 5 μg/seed, Inoc Rate 25, IC 1.6): 2.6
Root Rot Average (SDS spores; seed treatment 5 μg/seed, Inoc Rate 25, IC 3.9): 4.1
Root Vigor Average (SDS spores; seed treatment 10 μg/seed, Inoc Rate 8, IC 2.3): 2.2
Root Rot Average (SDS spores; seed treatment 10 μg/seed, Inoc Rate 8, IC 2.9): 2.4
Root Vigor Average (SDS spores; seed treatment 10 μg/seed, Inoc Rate 25, IC 1.6): 1.9
Root Rot Average (SDS spores; seed treatment 10 μg/seed, Inoc Rate 25, IC 3.9): 4.1
Root Vigor Average (SDS spores; seed treatment 25 μg/seed, Inoc Rate 8, IC 2.3): 1.8
Root Rot Average (SDS spores; seed treatment 25 μg/seed, Inoc Rate 8, IC 2.9): 2.3
Root Vigor Average (SDS spores; seed treatment 25 μg/seed, Inoc Rate 25, IC 1.6): 2.2
Root Rot Average (SDS spores; seed treatment 25 μg/seed, Inoc Rate 25, IC 3.9): 3.6
Root Vigor Average (SDS spores; seed treatment 50 μg/seed, Inoc Rate 8, IC 2.3): 1.9
Root Rot Average (SDS spores; seed treatment 50 μg/seed, Inoc Rate 8, IC 2.9): 2.8
Root Vigor Average (SDS spores; seed treatment 50 μg/seed, Inoc Rate 25, IC 1.6): 2.1
Root Rot Average (SDS spores; seed treatment 50 μg/seed, Inoc Rate 25, IC 3.9): 3.8
Root Vigor Average Expt. 1 ([1]; drench 1 ppm): 1.7
Root Vigor Average Expt. 2 ([1]; drench 1 ppm): 2.5
Root Rot Average Expt. 2 ([1]; drench 1 ppm): 3.2
Root Rot Average Expt. 1 ([1]; drench 1 ppm): 4.5
Root Vigor Average Expt. 1 ([1]; drench 5 ppm): 2
Root Vigor Average Expt. 2 ([1]; drench 5 ppm): 2.7
Root Rot Average Expt. 2 ([1]; drench 5 ppm): 3.4
Root Rot Average Expt. 1 ([1]; drench 5 ppm): 3.9
Root Vigor Average Expt. 1 ([1]; drench 10 ppm): 2.1
Root Vigor Average Expt. 2 ([1]; drench 10 ppm): 3
Root Rot Average Expt. 2 ([1]; drench 10 ppm): 3.1
Root Rot Average Expt. 1 ([1]; drench 10 ppm): 3.5
Root Vigor Average Expt. 1 ([1]; drench 25 ppm): 2.8
Root Vigor Average Expt. 2 ([1]; drench 25 ppm): 3.1
Root Rot Average Expt. 2 ([1]; drench 25 ppm): 2.6
Root Rot Average Expt. 1 ([1]; drench 25 ppm): 2.9
Root Vigor Average Expt. 1 ([1]; drench 50 ppm): 2.3
Root Vigor Average Expt. 2 ([1]; drench 50 ppm): 2.9
Root Rot Average Expt. 2 ([1]; drench 50 ppm): 2.6
Root Rot Average Expt. 1 ([1]; drench 50 ppm): 3.1
